Article PMC11214487, “YZL-51N functions as a selective inhibitor of SIRT7 by NAD^+ competition to impede DNA damage repair” (iScience, 2024)
Values joined by “and” are separate entries in the source; they are usually repeats but may differ in a detail not shown here. Equal entries are not always repeated. Where two headings read alike, the source gives them in different places.

Legend:
SIRT7 [1] = biological target: T1, SIRT7 (Homo sapiens, UniProt Q9NRC8); assay: Fluor de Lys (FDL) SIRT7 deacetylase assay; assay type: biochemical; conditions: for inhibition at 50 µM: 50 μM compound, 37°C, 90 min; for Dose-dependent inhibition of SIRT7: FDL assay, Figure S5; for IC50: 0.5 mM NAD+, read-out: FDL assay SIRT7 inhibition IC50
T1 construct: His-tagged full length SIRT7 protein expression from BL21 bacterial cells; His; made in house; host or cells: E. coli BL21
T1 sequence (Q9NRC8 1-400): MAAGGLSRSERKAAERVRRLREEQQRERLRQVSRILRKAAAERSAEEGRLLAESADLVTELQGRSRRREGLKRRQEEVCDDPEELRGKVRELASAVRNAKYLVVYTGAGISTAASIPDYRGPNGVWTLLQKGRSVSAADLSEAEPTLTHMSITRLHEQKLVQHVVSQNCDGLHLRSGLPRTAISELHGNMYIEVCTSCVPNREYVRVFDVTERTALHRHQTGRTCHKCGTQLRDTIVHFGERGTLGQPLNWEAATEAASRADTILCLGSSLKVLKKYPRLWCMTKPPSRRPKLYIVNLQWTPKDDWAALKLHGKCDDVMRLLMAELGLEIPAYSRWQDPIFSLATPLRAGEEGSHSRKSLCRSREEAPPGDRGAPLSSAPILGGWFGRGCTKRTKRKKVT
Description: To assess SIRT7 deacetylase activity using Fluor de Lys (FDL) assays, the peptide […]∗QLAGGK was synthesized and characterized as a substrate using fluorophore 7-methoxycoumarin-4-acetic acid (∗, MCA) (Figures 1A, S1A, and S1B). In the presence of both SIRT7 and NAD^+, a luminescence response was detected in the linear range (y = 31.88x + 2396, R^2 = 0.9742) (Figure 1B). We screened our preserved library of 242 natural products to find potential SIRT7 inhibitors.
For in vitro analysis of SIRT7 deacetylation, the reaction system contained 10 μg His-SIRT7, 0.5 mM NAD^+, 10 μM […](MCA)QLAGGK (synthesized by QYAOBIO; details in the supplementary files), 50 μM potential compound or 3 mM NAM, and assay buffer (10 mM Tris-HCl pH 8.0, 4 mM MgCl2, 0.2 mM DTT and 10% Glycerol). The deacetylation reactions were incubated at 37°C for 90 min. The fluorescence intensity was measured with a microplate reader (Synergy H4 Hybrid Reader, Biotek) at an excitation wavelength of 260 nm and detected at an emission spectrum of 300–600 nm. The IC50 values were calculated at 450 nm emission by GraphPad Prism 8.

EZH2 = test system: EZH2; design: method as in PMID 23023262; conditions: EZH2 over EZH1 ref 52; cited from earlier work
SIRT7 [2] = biological target: T1, SIRT7; assay: Dot blot assay of SIRT7-mediated H3K18ac peptide deacetylation; assay type: biochemical; conditions: for Rescue of H3K18 acetylation: dot blot screening, 50 μM; for EC50: read-out: Dot blot assay H3K18ac rescue EC50
Description: To avoid the bias of the fluorescence assay, we also performed dot blot assays for the effects of natural compounds on SIRT7-mediated deacetylation of H3K18ac peptides in vitro (Figures S2A and S2B). In this system, SIRT7 mediated a dose-dependent deacetylation of H3K18ac (Figure 1D). […] Based on comparisons of all the candidates, we selected YZL-51N as the best for further investigation (Figure 1F). […] Thus, P. americana derived YZL-51N was confirmed as an identified SIRT7 inhibitor using parallel peptide-based screening platforms.
For dot blot assays, the reaction system containing 10 μg His-SIRT7, 0.5 mM NAD^+, 10 μM biotin-H3K18ac peptides and 50 μM potential compound was mixed and incubated at 37°C for 90 min. Samples were transferred to a polyvinylidene difluoride (PVDF) membrane, and then blocked with 5% skimmed milk. The blots were probed with H3K18ac primary antibody at RT for 2 h and then incubated with secondary antibody at RT for 1h. The bands were visualized using ECL substrates (Thermo Fisher, USA) on Tanon 5200SF Imaging System.

SIRT7 [3] = biological target: T1, SIRT7; assay: Fluor de Lys (FDL) SIRT7 deacetylase assay; assay type: biochemical; conditions: 2 mM NAM treatment
SIRT7 [4] = biological target: T1, SIRT7; assay: Surface plasmon resonance (SPR) binding assay
Protocol: All SPR measurements were performed on Biacore T200 instrument (GE Healthcare) with running buffer (PBS+5% DMSO) at room temperature. The bacterially purified His-SIRT7 was covalently immobilized onto Series S Sensor Chip CM5 by a standard amino-coupling procedure in 10 mM sodium acetate (pH 5.5). Two-fold serial dilutions of YZL-51N or NAD^+ in 5% DMSO passed through the sensor chip at 30 μL/min for 120 s, followed by 240 s of dissociation flow. The KD value was calculated based on the concentration dependence of the observed steady-state response using Biacore T200 Evaluation software Version 1.0 (GE Healthcare).

Protocol for HCT116 cells: Cells were seeded into 96 well plates (4,000 cells/well). […] The cells were then washed and re-cultured in fresh medium for 48 h. […] Formazan were generated by the addition of 100 μL DMSO and shaking for 30 min. The absorbance of samples was measured at 570 nm using a microtiter plate reader (BioTek).

For `COc1ccc(C(C)=O)cc1OC` [compound 1], the inhibition at 50 µM (SIRT7 [1]) was 47.5% and the “Dose-dependent inhibition of SIRT7” value (SIRT7 [1]) was “did not show a dose-dependent inhibition”.

For `COc1cc([C@@H]2c3cc4c(cc3[C@@H](O[C@@H]3O[C@@H]5CO[C@@H](C)O[C@H]5[C@H](O)[C@H]3O)[C@H]3COC(=O)[C@H]23)OCO4)cc(OC)c1O` [etoposide, reference compound], the “Cell proliferation (%, Mean ± SD)” value (HCT116 cells; single agent 5 μM) was 92.7 ± 4.1%, the “Cell proliferation (%, Mean ± SD)” value (HCT116 cells; single agent 10 μM) was 82.5 ± 6.0% and the “Cell proliferation (%, Mean ± SD)” value (HCT116 cells; single agent 20 μM) was 73.5 ± 6.0%. The “Cell proliferation (%, Mean ± SD)” value (HCT116 cells; single agent 40 μM) was 48.5 ± 2.4% and the “Cell proliferation (%, Mean ± SD)” value (HCT116 cells; single agent 80 μM) was 27.0 ± 1.9%.

For `Cc1cc(C)c(CNC(=O)c2cc(-c3ccc(CN4CCOCC4)cc3)cc3c2cnn3C2CCCC2)c(=O)[nH]1` [EPZ005687], the “Selectivity against EZH1” value (EZH2) is listed as 50 fold.

For `O=C(O)/C(=C\C(=O)c1ccc(O)c(O)c1)c1ccc(O)c(O)c1` [compound 7], the inhibition at 50 µM (SIRT7 [1]) was 52.7%, the IC50 (SIRT7 [1]; 10 μM peptide) was greater than 30 µM and the “Dose-dependent inhibition of SIRT7” value (SIRT7 [1]) was “did not show a dose-dependent inhibition”. The “Rescue of H3K18 acetylation” value (SIRT7 [2]) was “rescued H3K18 acetylation” and the EC50 (SIRT7 [2]) was 32 µM.

For `COC(=O)/C(=C\C(=O)c1ccc(OC)c(OC)c1)c1ccc(OC)c(OC)c1` [compound 6], the inhibition at 50 µM (SIRT7 [1]) was 12.3%, the “Rescue of H3K18 acetylation” value (SIRT7 [2]) was “rescued H3K18 acetylation” and the EC50 (SIRT7 [2]) was 70.2 µM.

For `NC(=O)c1cccnc1` [NAM, nicotinamide, reference compound], the IC50 (SIRT7 [1]; 0-30 mM NAM) was 2290 µM and ~2290 µM and the inhibition at 2000 µM (SIRT7 [3]) was 44.4%.

With `NC(=O)c1ccc[n+]([C@@H]2O[C@H](COP(=O)([O-])OP(=O)(O)OC[C@H]3O[C@@H](n4cnc5c(N)ncnc54)[C@H](O)[C@@H]3O)[C@@H](O)[C@H]2O)c1` [NAD^+] the “Weaker affinity to SIRT7 than YZL-51N” value (SIRT7 [4]) was 200 fold and the Kd (SIRT7 [4]; immobilized His-SIRT7) was greater than 200 µM.
